In brackets after ≈: the same amount, converted by molar mass.
Columns and labels:
[1] = test system: M. tuberculosis mono-resistant to INH (INHR, ATCC 35822), katG S315T; format: cell-based, Mycobacterium tuberculosis
[2] = test system: M. tuberculosis mono-resistant to RIF (RMPR, ATCC 35838), rpoB H526Y; format: cell-based, Mycobacterium tuberculosis

Compound	MIC [1]	MIC [2]
CO[C@H]1/C=C/O[C@@]2(C)Oc3c(C)c(O)c4c(O)c(c(/C=N/N5CCN(C)CC5)c(O)c4c3C2=O)NC(=O)/C(C)=C\C=C\[C@H](C)[C@H](O)[C@@H](C)[C@@H](O)[C@@H](C)[C@H](OC(C)=O)[C@@H]1C [RIF, rifampicin, reference compound]	0.304 µM (≈ 0.25 µg/mL)	622.2 µM (≈ 512 µg/mL)
NNC(=O)c1ccncc1 [INH, isoniazid, reference compound]	14.6 µM (≈ 2 µg/mL)	≤0.219 µM
CC1(C)CC2=C(O1)C(=O)c1ccccc1C2=O [Compound 3, 2,2-Dimethyl-2,3-dihydronaphtho[2,3-b]furan-4,9-dione]	54.8 µM (≈ 12.5 µg/mL)	54.8 µM (≈ 12.5 µg/mL)
NC1=CC(=O)c2ccccc2C1=O [Compound 5, 2-Aminonaphthalene-1,4-dione]	36.1 µM (≈ 6.25 µg/mL)	36.1 µM (≈ 6.25 µg/mL)
O=C1C=C(Nc2ccccc2)C(=O)c2ccccc21 [Compound 6, 2-(Phenylamino)naphthalene-1,4-dione]	100.4 µM (≈ 25 µg/mL)	12.5 µM (≈ 3.12 µg/mL)
CC1(C)CCC2=C(O1)C(=O)c1ccccc1C2=O [Compound 2, 2,2-Dimethyl-3,4-dihydro-2H-benzo[g]chromene-5, 10-dione]	206.6 µM (≈ 50.1 µg/mL)	206.6 µM (≈ 50.1 µg/mL)
O=C1C(Cl)=C(Cl)C(=O)c2ccccc21 [Compound 1, 2,3-Dichloronaphthalene-1,4-dione]	110.6 µM (≈ 25.1 µg/mL)	110.6 µM (≈ 25.1 µg/mL)
C=CCOC1=CC(=O)c2ccccc2C1=O [Compound 4, 2-(Allyloxy)naphthalene-1,4-dione]	234 µM (≈ 50.1 µg/mL)	234 µM (≈ 50.1 µg/mL)
